Experimental data as given in a melting point compilation (Tetko et al.; mined from patent text by program, amines drawn as free bases though some values may be those of a salt).

Row | melting point [°C] | SMILES
1 | 130 to 132 | O=C(CCc1cccc([N+](=O)[O-])c1)Nc1ccc(Nc2ccccc2)cc1
2 | 75 to 77 | CCCCCCCCCCCCc1ccc(CCC(N)(CO)CCO)cc1 (configuration not stated)
3 | 181 to 182 | O=C(O)CCCCCN1CCN2c3ccccc3Cc3ccccc3C2C1 (configuration not stated)
4 | 197 to 201 | CC(C)CC(CC(=O)NO)C(=O)N[C@H]1Cc2cn(c3ccccc23)CCCCCCCNC1=O (some centres not stated)
5 | 246 | NC(=O)Nc1ccc2c(c1)N1CCCN=C1S2
6 | 266 to 267 | O=c1cc(-c2ccccc2)[nH]c(=S)[nH]1
7 | 96 to 99 | [N-]=[N+]=NC1CCCC2(CCCC2)NC1=O (configuration not stated)
8 | 78 to 79 | CC(C)(C)OC(=O)NCC12CCC1CN(Cc1ccccc1)C2 (configuration not stated)
9 | 88 to 95 | CCOc1c(OC)cc([N+](=O)[O-])c2ncccc12
10 | 136 | COC(=O)c1ccc2ccc(C#N)cc2c1
11 | 210 to 212 | Cn1cc(C(=O)O)cc1C(=O)c1ccccc1
12 | 74.5 to 81 | Cc1ccc(S(=O)(=O)OC[C@@H]2CCCN(C)C2)cc1
13 | 151 to 153 | CCNc1cc(-c2c(-c3cccc(C)c3)nc3cccnn23)ccn1
14 | 209 to 210 | Nn1cnc2ccccc2c1=O
15 | 113 to 114 | CC1(C)c2ccccc2C(C)(C)C1(S)CC#N
16 | 146 to 147 | CCN1CC(=O)c2ccc3ccccc3c2S1(=O)=O
17 | 300 to 310 | CC1CCC2(C(=O)O)CCC3(C)C(=CCC4C5(C)CC(O)C(O)C(C)(CO)C5CCC43C)C2C1C (configuration not stated)
18 | 234 to 236 | CNC(=O)c1nn(-c2ccccc2)c(O)c1N=Nc1ccc(S(=O)(=O)NCCCCCCBr)cc1
19 | 52 to 54 | CCCCN(O)C1CC(C)(C)N(C(C)=O)C(C)(C)C1
20 | 256 to 257 | c1ccc2c(c1)[nH]c1cnc(-c3nc(C4CC4)no3)cc12
21 | 155 to 156 | CCOC(=O)c1ccc2ccc(O)cc2c1
22 | 158 to 169 | N=C(Cc1ccccc1)Nc1ncccc1OCc1ccccc1Br
23 | 176 to 178 | O=C(Nc1ccc(-n2nc(-c3cccnc3)cc2C(F)F)cc1)c1ccncc1F
24 | 158 | COc1nn2ccccc2c1C(C)=O

Row | melting point [°C] | SMILES
25 | 118 to 119 | O=C(CN1CCCC1=O)N1CCC(C2c3ncc(Br)cc3CCc3cc(Cl)cc(Br)c32)CC1 (single isomer, unassigned; (+))
26 | 222 to 223 | COc1cc(OC)c2c(=O)[nH]c(-c3ccc(OCCNC(C)C)c(-c4cccc(S(C)(=O)=O)c4)n3)nc2c1
27 | 114 to 115 | ON=C1CCCCC1=Cc1ccccc1
28 | 255 | COc1cc(C)c2[nH]ccc2c1C(N)(c1nc2cc(C#N)ccc2[nH]1)C(F)(F)F (single isomer, unassigned; (-))
29 | 280 | CCc1cccc(C)c1CNc1cc(C(=O)N(C)C)nc2c(CO)c(C)[nH]c12
30 | 158 to 160 | CC1=C(C(=O)OCCC#N)C(c2cccc([N+](=O)[O-])c2)C(C(=O)OCCCN2CCC(c3ccccc3)(c3ccccc3)CC2)=C(C)N1 (configuration not stated)
31 | 47 to 52 | COc1ccc(OC)c(-c2ccc(C(C)=NOCCOc3ccc(CC4SC(=O)NC4=O)cc3)cc2)c1 (configuration not stated)
32 | 78 to 80 | C1COCCN2CCOCCOCCN(CCO1)CCSCCSCC2
33 | 149 to 150 | N#Cc1ccc(NC(=O)c2cccc(OCc3cccc(F)c3F)c2)cc1
34 | 147 to 149 | O=C(O)[C@@H](CC(=O)N1CCOCC1)NS(=O)(=O)c1ccc(Oc2ccccc2)cc1
35 | 123 to 125 | Cc1cn2cccc(C=O)c2n1
36 | 73 to 75 | COC(=O)c1ccc2c(c1)C(C#N)=CCC2
37 | 100 to 102 | CCCCCCN1C(=O)c2cscc2Nc2ccccc21
38 | 225 to 226 | Cc1cccc(-c2ccc3c(c2)c2c(n3Cc3ccccc3)COC(=O)C2=O)c1
39 | 114 to 115 | Nc1ccc(OCc2cscn2)cc1
40 | 101 to 103 | CCCCc1nc(Cl)c(CO)n1Cc1ccc(N)cc1
41 | 88 to 91 | CCCn1cc(CO)c(=O)c2ccccc21
42 | 89 to 90 | Cc1oc(-c2ccccc2)nc1COc1ccc(CCCO)cn1
43 | 162 to 164 | CCc1[nH]n(C2CCCC2)c2nc(Cc3ccncc3)nc(=O)c1-2
44 | > 300 | O=C(O)c1cc(C(=O)O)cc(N2C(=O)C=CC2=O)c1
45 | 238 to 240 | O=C1CCC(N2Cc3cc(CNC(=O)Nc4ccc(Cl)c(Cl)c4)ccc3C2=O)C(=O)N1 (configuration not stated)
46 | 78 | CC(=O)NCCc1ccc(C(=O)c2cccc(F)c2)cc1
47 | 134 to 135 | CCNC(=O)CCCNC(=O)CCCNC(=O)OC(C)(C)C
48 | 260 | COc1ccc(Nc2cc(-c3ccc(F)cc3)nc3ccccc23)cc1Cl

Row | melting point [°C] | SMILES
49 | 78 to 82 | CC(C)=CC1CC(C)=C(C)C2C(=O)OC(=O)C12 (configuration not stated)
50 | 245 | Cc1cc(-c2cc(C(F)(F)F)n3ncc(C(=O)Nc4cccc(S(N)(=O)=O)c4)c3n2)ccc1C(F)(F)F
51 | 260 to 263 | O=C1c2ccccc2-c2c1c1ccccc1c(=O)n2CCNS(=O)(=O)c1ccc(Br)cc1
52 | 68 | O=C(Cc1ccc2nc(CCCOc3cccc(CN4CCCC4)c3)[nH]c2c1)N1CCCC1
53 | 148 to 150 | CN(C)C(=O)c1cc2n(c1)CCc1ccccc1C2=O
54 | 182 to 185 | CCc1nc2c(N)nc3ccccc3c2n1CCCCS(C)(=O)=O
55 | 200 to 201 | COc1cc(Nc2ccc(CCCc3ccc(Cl)c(Cl)c3)cc2)c(C(=O)O)cc1[N+](=O)[O-]
56 | 149 to 151 | C[C@H](C(=O)O)n1ccn(-c2ccc(OCC(F)(F)C(F)F)cc2)c1=O
57 | 115 to 116 | NCc1c(Nc2ccccc2)cccc1-c1ccccc1
58 | 53.5 to 55 | FC1(F)c2ccccc2Cc2ccccc2C1(F)F
59 | 195 to 197 | COC(=O)Nc1nc2cnc3cccnc3c2n1CC(C)C
60 | 63 to 65 | Cc1nc2cc(OCCCCl)ccc2s1
61 | 50 to 51 | COCCc1sc(C(C)(O)c2nc(C)c(CCOC)s2)nc1C
62 | 116 to 117 | Cc1ccc(Cn2ncnc2C(C)NS(=O)(=O)c2ccc(Cl)s2)cc1 (configuration not stated)
63 | 146 to 147 | CC1(C)Oc2cc(Br)sc2[C@@H](N2CCCCC2=O)[C@@H]1OCc1ccccc1 (relative stereo)
64 | 90 | CC(Oc1ccc(Oc2nc3ccc(Cl)cc3s2)cc1)C(=S)OC[Si](C)(C)C (configuration not stated)
65 | 96 to 97 | Cc1csc(N2CCN(Cc3ccc(C(=O)n4nccc4C)cc3)C2=O)n1
66 | 180 | CON=C(C(=O)NC1C(=O)N2C(C(=O)O)=C(CSc3nnnn3C)SCC12)c1csc(N)n1 (configuration not stated)
67 | 71 to 72 | CCCCCCCCCCc1nc(N(C)C)nc(C)c1O
68 | 150 | O[C@@H]1CN=C(c2ccc(N3CCOCC3)cc2)O[C@H]1c1ccccc1 (racemic)
69 | 125 to 127 | COc1ccc2c(c1)C(=O)c1cccc(OC)c1-2
70 | 123 to 124 | C/C(=C\c1ccc(CO)cc1)c1ccc2c(c1)C(C)(C)CCC2(C)C
71 | 81.5 | C=Cn1ccnc1C#N
72 | 65 to 68 | CCC(CC)(CC)C(=O)O[C@H]1CCC=C2C=C[C@H](C)[C@H](CC[C@@H]3C[C@@H](O)CC(=O)O3)[C@H]21

Row | melting point [°C] | SMILES
73 | 168 to 169 | O=C1NC(=O)N(CCc2ccccc2)C1O (configuration not stated)
74 | 199 | COc1ccc(C2(O)CCN(CC(O)c3ccc(OCc4ccccc4)cc3)CC2)cn1 (configuration not stated)
75 | 106 to 107 | CC1(CNC(=O)OC(C)(C)C)CN(C(c2ccccc2)c2ccccc2)C1
76 | 131 | COC(=O)C=CC(=O)Nc1ccc(Cl)cc1C(=O)NC(C)C1CC1 (configuration not stated)
77 | 59 to 60 | CCOC(=O)c1c(C)nn(-c2ccc(F)cc2)c1C
78 | 167 to 170 | CN(C(=O)OC(C)(C)C)c1cnc(-c2ccc(Cl)nc2)s1
79 | 134 to 137 | C[C@H](NC(=O)c1c(C(=O)O)cccc1[N+](=O)[O-])C(=O)N1CCC[C@H]1C(=O)O
80 | > 300 | NC(=O)Nc1ccc(-c2c[nH]c(=O)cn2)cc1
81 | 191 to 192 | CC(C)Cn1c(CNC(=O)OC(C)(C)C)c(-c2ccccc2F)c2cc(C#N)ccc2c1=O
82 | 152 to 154 | CCOC(=O)C1(C(C)C)OC2(O)C3CCCN3C(=O)C(Cc3ccccc3)N2C1=O (configuration not stated)
83 | 144 to 146 | CCC(OCC(F)(F)F)c1ccc(Cl)c2nc3n(c12)CCCN3c1ccc(N(C)C)nc1C (configuration not stated)
84 | 135 to 137 | CC(C(=O)O)c1ccc(Cc2ccccc2CC(=O)O)cc1 (configuration not stated)
85 | 87 to 89 | CC[C@@H](c1ccccc1)N(Cc1ccc(C(=O)OC)c(F)c1F)S(=O)(=O)c1ccc(Cl)cc1
86 | 112 to 114 | CCCCOc1ccc2c(c1)C(N(CC(=O)NC(=N)N)S(C)(=O)=O)CC(C)(C)O2 (configuration not stated)
87 | 147 to 148 | O=C1Cc2cc(OCc3ccc4ccccc4n3)ccc2N1c1c(Cl)cccc1Cl
88 | 112 to 113 | Cc1cc(CO)cc(Cl)n1
89 | 83 to 84 | CCn1cc(CN(C(=O)C2CCc3ccccc32)c2ccc(C(C)C)cc2)cn1 (configuration not stated)
90 | 73 to 74 | Cc1cc(CC(=O)c2ccccc2)on1
91 | 187 | Cc1cn(C)c2c1N(C(=O)CCN1CCN(C)CC1)c1ccccc1NC2=O
92 | 141 to 142 | C=CCC(C)(C)C(=O)O[C@H]1C[C@H](O)C=C2C=C[C@H](C)[C@H](CCC3CC(O)CC(=O)O3)[C@H]21 (some centres not stated)
93 | 198 to 199 | O=c1ccc(-c2c(-c3ccccc3)nn3ccccc23)nn1C1=C(CCO)CCCC1
94 | 73 to 74 | CCCCCCCCCCC1SCCCN1C(=S)Nc1cccc(Br)c1 (configuration not stated)
95 | 82 to 84 | C#CCOC(=O)c1ccc(O)cc1
96 | 172 to 173 | CCCn1nc2c(N)nc3ccccc3c2c1CCCCCl

Row | SMILES | melting point [°C]
97 | Cc1nnc2n1-c1sc(CCc3ccc(-c4ccccc4)cc3)cc1C(c1ccccc1Cl)=NC2 | 163 to 165
98 | CS(=O)CCN1C(=O)CN=C(c2ccccc2)c2cc(Cl)ccc21 (configuration not stated) | 166 to 167
99 | CCOC(=O)c1c2ccc(CC(=O)NOC(=O)NC)ccc-2c(C(=O)OCC)c1N | 222 to 224
100 | C[C@H](CN1CC=C(c2cccs2)CC1)Nc1ccccn1 | 63 to 68
101 | Cc1nc(CS(C)=O)nc(OC(=O)N(C)C)c1C(C)C (configuration not stated) | 80
102 | COc1cccc2c1C(=O)c1ccccc1C21CCN(C)CC1 | 170 to 172
